Results reported in PubChem BioAssay AID280 (DTP/NCI, 2004).
Values joined by “and” are separate entries in the source; they are usually repeats but may differ in a detail not shown here. Equal entries are not always repeated. Toxic doses and inconclusive results are not listed.

Test system: nude mice, LOX melanoma ip, survival T/C
Test: NCI In Vivo Anticancer Drug Screen. Data for tumor model Human Amelanotic Melanoma (LOX) (intraperitoneal) in NU/NU BALB/C (nude) mice
Details: endpoint: median survival time, higher = longer survival
Experimental: The antitumor activity of compounds was measured in mice bearing transplantable tumors. Survival or tumor size were measured and the results are expressed as the measurement made in the treated group (T) divided by the measurement made in the vehicle treated control group (C). The tumor model used in this assay is Human Amelanotic Melanoma (LOX) (intraperitoneal) in NU/NU BALB/C (nude) mice

[1] = dose: 37.5 mg/kg/injection, schedule: Q04DX003 (ip), vehicle: water
[2] = dose: 75.0 mg/kg/injection, schedule: Q04DX003 (ip), vehicle: saline
[3] = dose: 150.0 mg/kg/injection, schedule: Q04DX003 (ip), vehicle: saline
[4] = dose: 300.0 mg/kg/injection, schedule: Q04DX003 (ip), vehicle: saline
[5] = dose: 600.0 mg/kg/injection, schedule: Q04DX003 (ip), vehicle: saline
[6] = dose: 37.5 mg/kg/injection, schedule: Q04DX003 (ip), vehicle: saline with Tween-80
[7] = dose: 75.0 mg/kg/injection, schedule: Q04DX003 (ip), vehicle: saline with Tween-80
[8] = dose: 150.0 mg/kg/injection, schedule: Q04DX003 (ip), vehicle: saline with Tween-80
[9] = dose: 300.0 mg/kg/injection, schedule: Q04DX003 (ip), vehicle: saline with Tween-80

## [Cl][Pt][Cl].[NH-]C(CO)C(=O)O (configuration not stated)
dose: 9.38 mg/kg/injection, schedule: Q04DX003 (ip), vehicle: water
  T/C: 119 % of control
dose: 18.75 mg/kg/injection, schedule: Q04DX003 (ip), vehicle: water
  T/C: 114 % of control
[1]
  T/C: 123 % of control

## CC#CCOCC(O)CCl (configuration not stated)
dose: 37.5 mg/kg/injection, schedule: Q04DX003 (ip), vehicle: saline
  T/C: 97 % of control
[2]
  T/C: 99 % of control
[3]
  T/C: 102 % of control
[4]
  T/C: 106 % of control
[5]
  T/C: 110 % of control

## Cc1ccc(/C=C/C(=O)/C=C/c2ccc(C)o2)o1
dose: 50.0 mg/kg/injection, schedule: Q04DX003 (ip), vehicle: DMSO
  T/C: 113 % of control
dose: 100.0 mg/kg/injection, schedule: Q04DX003 (ip), vehicle: DMSO
  T/C: 102 % of control
dose: 200.0 mg/kg/injection, schedule: Q04DX003 (ip), vehicle: DMSO
  T/C: 98 % of control
dose: 400.0 mg/kg/injection, schedule: Q04DX003 (ip), vehicle: DMSO
  T/C: 100 % of control
dose: 800.0 mg/kg/injection, schedule: Q04DX003 (ip), vehicle: DMSO
  T/C: 106 % of control

## Nc1ccc(S(=O)(=O)Nc2cnc3c(Cl)cccc3n2)cc1
dose: 89.1 mg/kg/injection, schedule: Q06HX002 (ip), vehicle: other
  T/C: 103 % of control
dose: 133.5 mg/kg/injection, schedule: Q01DX001 (ip), vehicle: other
  T/C: 88 % of control
dose: 133.5 mg/kg/injection, schedule: Q01DX005 (ip), vehicle: other
  T/C: 109 % of control
dose: 133.5 mg/kg/injection, schedule: Q06HX002 (ip), vehicle: other
  T/C: 103 % of control
dose: 200.2 mg/kg/injection, schedule: Q01DX001 (ip), vehicle: other
  T/C: 98 % of control
dose: 200.2 mg/kg/injection, schedule: Q01DX005 (ip), vehicle: other
  T/C: 114 % of control
dose: 200.2 mg/kg/injection, schedule: Q06HX002 (ip), vehicle: other
  T/C: 114 % of control
dose: 300.2 mg/kg/injection, schedule: Q01DX001 (ip), vehicle: other
  T/C: 104 % of control
dose: 300.2 mg/kg/injection, schedule: Q01DX005 (ip), vehicle: other
  T/C: 116 % of control
dose: 300.2 mg/kg/injection, schedule: Q06HX002 (ip), vehicle: other
  T/C: 111 % of control
dose: 450.0 mg/kg/injection, schedule: Q01DX001 (ip), vehicle: other
  T/C: 110 % of control
dose: 674.7 mg/kg/injection, schedule: Q01DX001 (ip), vehicle: other
  T/C: 119 % of control

## N[C@@H](Cc1ccc(N(CCCl)CCCl)cc1)C(=O)O
dose: 1.0 mg/kg/injection, schedule: Q01DX005 (ip), vehicle: water
  T/C: 155 % of control
dose: 1.0 mg/kg/injection, schedule: Q01DX015 (ip), vehicle: water
  T/C: 166 % of control
dose: 2.0 mg/kg/injection, schedule: Q01DX005 (ip), vehicle: water
  T/C: 258 % of control
dose: 2.0 mg/kg/injection, schedule: Q01DX015 (ip), vehicle: water
  T/C: 218 % of control
dose: 2.5 mg/kg/injection, schedule: Q01DX001 (ip), vehicle: water
  T/C: 171 % of control
dose: 2.5 mg/kg/injection, schedule: Q04DX003 (ip), vehicle: water
  T/C: 162 % of control
dose: 4.0 mg/kg/injection, schedule: Q01DX005 (ip), vehicle: water
  T/C: 344 % of control
dose: 4.0 mg/kg/injection, schedule: Q01DX015 (ip), vehicle: water
  T/C: 344 % of control
dose: 5.0 mg/kg/injection, schedule: Q01DX001 (ip), vehicle: water
  T/C: 188 % of control
dose: 5.0 mg/kg/injection, schedule: Q04DX003 (ip), vehicle: water
  T/C: 241 % of control
dose: 6.0 mg/kg/injection, schedule: Q04DX003 (ip), vehicle: saline
  T/C: 111 % of control and 203 % of control
dose: 8.0 mg/kg/injection, schedule: Q01DX005 (ip), vehicle: water
  T/C: 344 % of control
dose: 9.0 mg/kg/injection, schedule: Q04DX003 (ip), vehicle: saline
  T/C: 122 % of control and 203 % of control
dose: 10.0 mg/kg/injection, schedule: Q01DX001 (ip), vehicle: water
  T/C: 344 % of control
dose: 10.0 mg/kg/injection, schedule: Q04DX003 (ip), vehicle: water
  T/C: 344 % of control
dose: 20.0 mg/kg/injection, schedule: Q01DX001 (ip), vehicle: water
  T/C: 344 % of control
dose: 20.0 mg/kg/injection, schedule: Q04DX003 (ip), vehicle: water
  T/C: 97 % of control

## O=CC(O)C(O)C(O)C(O)CO (configuration not stated)
[2]
  T/C: 112 % of control and 99 % of control
[3]
  T/C: 107 % of control and 98 % of control
[4]
  T/C: 102 % of control and 106 % of control
[5]
  T/C: 95 % of control
dose: 1200.0 mg/kg/injection, schedule: Q04DX003 (ip), vehicle: saline
  T/C: 98 % of control and 99 % of control

## COc1ccc(OC)c(Cc2cnc3nc(N)nc(N)c3c2C)c1
dose: 7.5 mg/kg/injection, schedule: Q04DX003 (ip), vehicle: water
  T/C: 99 % of control
dose: 15.0 mg/kg/injection, schedule: Q04DX003 (ip), vehicle: water
  T/C: 105 % of control
dose: 30.0 mg/kg/injection, schedule: Q04DX003 (ip), vehicle: water
  T/C: 101 % of control
[1]
  T/C: 91 % of control
dose: 60.0 mg/kg/injection, schedule: Q04DX003 (ip), vehicle: water
  T/C: 107 % of control
dose: 75.0 mg/kg/injection, schedule: Q04DX003 (ip), vehicle: water
  T/C: 88 % of control

## CNC(=O)c1cccc2c(Nc3ccc(NS(C)(=O)=O)cc3OC)c3cccc(C)c3nc12
dose: 6.25 mg/kg/injection, schedule: Q04DX003 (ip), vehicle: suspension in saline
  T/C: 121 % of control
dose: 15.0 mg/kg/injection, schedule: Q04DX003 (ip), vehicle: suspension in saline
  T/C: 158 % of control
dose: 25.0 mg/kg/injection, schedule: Q04DX003 (ip), vehicle: suspension in saline
  T/C: 178 % of control
dose: 41.66 mg/kg/injection, schedule: Q04DX003 (ip), vehicle: suspension in saline
  T/C: 170 % of control
dose: 69.44 mg/kg/injection, schedule: Q04DX003 (ip), vehicle: suspension in saline
  T/C: 161 % of control

## CCOC(=O)C1=C(C)O/C(=C/c2cccc(Cl)c2)C1=O
[6]
  T/C: 200 % of control
[7]
  T/C: 194 % of control
[8]
  T/C: 152 % of control
[9]
  T/C: 184 % of control

## COC12[C@@H]3N[C@@H]3CN1C1=C(C(=O)C(NCCSSCCNC3=C(C)C(=O)C4=C(C3=O)C(COC(N)=O)[C@]3(OC)C5N[C@@H]5CN43)=C(C)C1=O)[C@@H]2COC(N)=O (some centres not stated)
dose: 1.57 mg/kg/injection, schedule: Q04DX003 (ip), vehicle: DMSO
  T/C: 121 % of control
dose: 12.5 mg/kg/injection, schedule: Q04DX003 (ip), vehicle: DMSO
  T/C: 331 % of control

## COc1cc2c(c3c1c(=O)c1ccccc1n3C)C=CC(C)(C)O2
dose: 12.5 mg/kg/injection, schedule: Q04DX003 (ip), vehicle: Klucel (hydroxypropylcellulose) (HPC)
  T/C: 104 % of control
dose: 25.0 mg/kg/injection, schedule: Q04DX003 (ip), vehicle: Klucel (hydroxypropylcellulose) (HPC)
  T/C: 107 % of control and 97 % of control
dose: 50.0 mg/kg/injection, schedule: Q04DX003 (ip), vehicle: Klucel (hydroxypropylcellulose) (HPC)
  T/C: 107 % of control
dose: 100.0 mg/kg/injection, schedule: Q04DX003 (ip), vehicle: Klucel (hydroxypropylcellulose) (HPC)
  T/C: 87 % of control

## C=C(C)/C([O-])=N/[N+](C)(C)CC(O)CCCCCCCCCCCC (configuration not stated)
dose: 2.5 mg/kg/injection, schedule: Q04DX003 (ip), vehicle: Klucel (hydroxypropylcellulose) (HPC)
  T/C: 88 % of control
dose: 5.0 mg/kg/injection, schedule: Q04DX003 (ip), vehicle: Klucel (hydroxypropylcellulose) (HPC)
  T/C: 91 % of control
dose: 10.0 mg/kg/injection, schedule: Q04DX003 (ip), vehicle: Klucel (hydroxypropylcellulose) (HPC)
  T/C: 91 % of control and 98 % of control
dose: 20.0 mg/kg/injection, schedule: Q04DX003 (ip), vehicle: Klucel (hydroxypropylcellulose) (HPC)
  T/C: 101 % of control
dose: 40.0 mg/kg/injection, schedule: Q04DX003 (ip), vehicle: Klucel (hydroxypropylcellulose) (HPC)
  T/C: 102 % of control and 105 % of control
dose: 80.0 mg/kg/injection, schedule: Q04DX003 (ip), vehicle: Klucel (hydroxypropylcellulose) (HPC)
  T/C: 105 % of control
dose: 160.0 mg/kg/injection, schedule: Q04DX003 (ip), vehicle: Klucel (hydroxypropylcellulose) (HPC)
  T/C: 87 % of control

## CS(=O)(=O)Nc1ccc(C(=O)CCN2CCCCCC2)cc1
[6]
  T/C: 98 % of control
[7]
  T/C: 123 % of control
[8]
  T/C: 93 % of control
[9]
  T/C: 110 % of control

## O=P1(N(CCCl)CCCl)NCCCO1 (configuration not stated)
dose: 40.0 mg/kg/injection, schedule: Q04DX003 (ip), vehicle: saline
  T/C: 111 % of control
dose: 60.0 mg/kg/injection, schedule: Q04DX003 (ip), vehicle: saline
  T/C: 115 % of control
dose: 90.0 mg/kg/injection, schedule: Q04DX003 (ip), vehicle: saline
  T/C: 101 % of control
